≈ marks a conversion by molar mass, not a printed value. Counter-ions that a name gives are not always drawn.
Columns and labels:
physchem = settings: water, thermodynamic from solid, Solubility in pure water
[1] = Aqueous solubility in distilled (pure) water at room temperature; settings: thermodynamic from solid

Row | solubility [1] [µg/mL] | Structure (SMILES) | solubility (physchem) [µg/mL]
1 |  | Cc1c(Cl)c(C)[n+]([O-])c(Cl)c1-c1noc(-c2cc(OP(=O)(O)O)c(O)c([N+](=O)[O-])c2)n1 [Compound 3, 2,5-dichloro-3-(5-(4-hydroxy-3-nitro-5-(phosphonooxy)phenyl)-1,2,4-oxadiazol-3-yl)-4,6-dimethylpyridine 1-oxide, triammonia salt] | > 500
2 | 23 to 36 (≈ 55.7 to 87.1 µM) | Cc1c(Cl)c(C)[n+]([O-])c(Cl)c1-c1noc(-c2cc(O)c(O)c([N+](=O)[O-])c2)n1 [Opicapone, 2,5-dichloro-3-(5-(3,4-dihydroxy-5-nitrophenyl)-1,2,4-oxadiazol-3-yl)-4,6-dimethylpyridine 1-oxide] | 

Source: US20260103479A1, “PRODRUGS OF OPICAPONE” (BIAL- PORTELA & CA, S.A., priority 2022, published 2026)
